The results in this text go back to patent US4100152A, “Peptides” (Takeda Chemical Industries, Ltd., priority 1976, dated 1978).

What all share (assay type): in vivo
The test system of test [1] is mice (ICR/JCL, male, 4 weeks old). Description: Activity-increasing action (spontaneous activity in activity wheel). The note with it: ratio of effect to that of the same dose of TRH (TRH = 1), cumulative wheel rotations during 3 hours after i.v. administration. How it is done: (3) Activity-increasing action
Using groups of 10 mice (ICR/JCL, male, 4 weeks old), each mouse was placed in an activity wheel and the activity-increasing action of the medication on the mouse was observed. The cumulative number of rotations caused by the spontaneous activity of the mice during a period of 3 hours following the intravenous administration of compound (I) was compared with the number of revolutions for the control group.
(§1) The relative effects of compound (I) by the above 4 procedures were expressed in terms of the ratios of effect of the same dose of compound (I) as that of TRH with the effects of TRH being taken as unity.

Test [2] has as its system male mice (ICR/JCL) with one caudate nucleus destroyed. Kind of test: Dopamine activity-potentiating effect (apomorphine-induced turning, caudate nucleus destroyed, reserpine premedication). The note with it: ratio of effect to that of the same dose of TRH (TRH = 1), compound given 30 minutes before 0.25 mg/kg apomorphine i.p., reserpine 2 mg/kg i.p. premedication. How it is done:
(4) Dopamine activity-potentiating effect
Using groups of 10 male mice (ICR/JCL) with one of its caudate nuclei destroyed by suction the effects of compound (I) upon the number of turns and the percent incidence of head turning as caused by 0.25 mg/kg of apomorphine (I.P.), i.e., a dopamine-receptor stimulant, under the influence of premedication (18-22 hours) with 2 mg/kg of reserpine (i.p.) were examined.
Thus, compound (I) was given 30 minutes before the administration of apomorphine and the result was compared with that for the untreated (control group). This test was performed to ascertain the potentiating effect of the compound upon the central nervous system action of dopamine, the principle of the test being the same as that of the experiment performed by Everett et al. [Fed. Proc. 23, 198, (1964)] for testing the DOPA synergistic effect which involved the administration of Dl-DOPA.
as §1

Test [3] concerns TSH (thyroid stimulating hormone) release. Kind of test: TSH-releasing activity (method of Schally et al.). The note with it: ratio of effect to that of the same dose of TRH (TRH = 1); rats. How it is done:
(1) TSH-releasing activity
Using rats, a test was performed in accordance with the method of Schally et al. [J. Biol. Chem. 244, 4077, (1969)].
as §1

For test [4], the system named is mice (ICR/JCL, male, 4 weeks old). Description: Anaesthesia antagonism (pentobarbital sodium, recovery of righting reflex). The following applies: ratio of effect to that of the same dose of TRH (TRH = 1), 55 mg/kg pentobarbital sodium i.p., compound i.v. after 10 minutes.

In the case of `NC(=O)[C@@H]1CCCN1C(=O)[C@H](Cc1c[nH]cn1)NC(=O)[C@@H]1CCC(=O)N1` [TRH, L-pyroglutamyl-L-histidyl-L-prolinamide], the Spontaneous activity-increasing effect in test [1] was found to be 1. Also, the Dopamine-potentiating effect in test [2] is given as 1. Moreover, in test [3], the TSH-releasing effect is 1. For the same molecule, the Anaesthesia antagonism in test [4] was 1.

In the case of Oct.His.Pip.NH2 [Oct-His-Pip-NH2], the Spontaneous activity-increasing effect in test [1] amounted to 5. For the same molecule, the Dopamine-potentiating effect in test [2] turned out to be 4.00. Further, the TSH-releasing effect in test [3] worked out at 0.5. In addition, the Anaesthesia antagonism in test [4] is reported as 1.57.
